Like-named read-outs stand apart in the source and are kept apart here.
Columns and labels:
[1] = test system: L6-myotubes; experiment: Glucose uptake in differentiated L6-myotubes (3H-2-deoxy-glucose); type: cell-based; details: read-out: Biological example 1: glucose uptake, % increase over the basal level
Experimental: (§1) L6-myoblasts were grown in Dulbecco's Modified Eagle's Medium (DMEM) containing 4,5 g/I glucose supplemented with 10% fetal bovine serum, 2 mM L-Glutamine, 50 U/ml penicillin, 50 μg/ml streptomycin and 10 mM HEPES. Cells were plated at 1×10^5 cells per ml in 24-well plates. After reaching 90% confluence the cells were grown in medium containing 2% FBS for 7 days where upon cells differentited into myotubes.
Differentiated L6-myotubes were serum-starved over night in medium containing 0.5% fatty-acid free BSA and stimulated with agonist, […], glucose free medium or PBS and another portion of agonist was added to glucose free medium. […] Cell lysate was mixed with scintillation buffer (Emulsifier Safe, Perkin Elmer and radioactivity detected in a β-counter (Tri-Carb 2800TR, Perkin Elmer). The numerical values in the table are given as % increase over the basal level.

[2] = biological target: T1, human β2-adrenoceptor (Homo sapiens, UniProt P07550); experiment: 3H-CGP 12177 whole cell β2 binding
T1 construct: expressed in transfected cells
Experimental: ^3H-CGP 12177 Whole Cell β2 Binding
Chinese Hamster Ovary (CHO) cells stably expressing the human β2-adrenoceptor were grown in Dulbecco's modified Eagle's medium nutrient mix F12 (DMEM/F12) containing 10% fetal calf serum and 2 mM L-glutamine in a 37° C. humidified 5% CO2:95% air atmosphere. The cells were seeded (100 000 cells/mL) into white-sided, clear-bottomed 96-well isoplates and allowed to grow to confluence for the following day's experiment. Next day, the media was removed from each well of the isoplate. Aliquots of the test compounds (10^−2 M in DMSO) were diluted in DMEM/F12 containing 2 mM L-glutamine (serum-free media) to final concentration ranges of 10^−4 M to 10^−10 M and added to each well. The radioligand ^3H-CGP 12177 was diluted in the same medium (˜1 nM final well concentration) and added to each well. Propranolol and CGP 12177 (10 μM) were used to measure non-specific binding. The cells were incubated for 2 hours at 37° C. After incubation, the cells were washed twice by the addition and removal of 200 μL ice-cold phosphate-buffered saline (PBS). Cells were then lysed with Optiphase Supermix cocktail (100 μL/well) and a clear sealant top was applied to the plate. The plate was left overnight in the dark at room temperature, centrifuged (1000 rpm, 1 min) and measured in a MicroBeta2 Microplate Counter (Perkin Elmer) (10 minutes pre-incubation, 2 min counts/well).
All data points on each binding curve were measured in duplicates. Each 96-well plate also contained four determinations of total and non-specific binding. Non-specific binding was determined in the presence of CGP 12177 and propranolol (10 μM). […] All data points are measured in counts per minute (CPM) and converted into disintegrations per minute (DPM) by dividing the count rate (CPM) with the counting efficiency of the instruments detector (57%). The numerical values were obtained by using the GraphPad Prism 7 programme and are given as -log K (pKi) in the table.

[3] = test system: L6-myotubes; experiment: Measurement of intracellular cAMP levels (alpha screen cAMP kit); type: cell-based; details: agonist final concentration 1×10^−5, 15 min; differentiated cells; 1 mM IBMX
Experimental: as §1
Differentiated cells were serum-starved over night and stimulated with agonist, final concentration 1×10−^5, for 15 min in stimulation buffer (HBSS supplemented with 1% BSA, 5 mM HEPES and 1 mM IBMX, pH 7,4) The medium was then aspirated and to end the reaction 100 μL of 95% EtOH was added to each well of a 24-well plate and cells were kept in −20° C. over night. The EtOH was let to evaporate and 500 μL of lysis buffer (1% BSA, 5 mM HEPES and 0,3% Tween-20, pH 7.4) was added to each well before put in −80° C. for 30 min and then kept in −20° C. Intracellular cAMP levels were detected using an alpha screen cAMP kit (6760635D from Perkin Elmer). The numerical values in the table are given as % increase over the basal level.

[4] = agonist final concentration 1×10^−5, differentiated L6-myotubes, 50 nM 3H-2-deoxy-glucose
[5] = CHO cells stably expressing the human β2-adrenoceptor, ~1 nM 3H-CGP 12177, 2 hours at 37° C., read-out: Biological example 3: -log K (pKi), 3H-CGP 12177 whole cell β2 binding (converted)

T1 sequence (P07550 whole entry): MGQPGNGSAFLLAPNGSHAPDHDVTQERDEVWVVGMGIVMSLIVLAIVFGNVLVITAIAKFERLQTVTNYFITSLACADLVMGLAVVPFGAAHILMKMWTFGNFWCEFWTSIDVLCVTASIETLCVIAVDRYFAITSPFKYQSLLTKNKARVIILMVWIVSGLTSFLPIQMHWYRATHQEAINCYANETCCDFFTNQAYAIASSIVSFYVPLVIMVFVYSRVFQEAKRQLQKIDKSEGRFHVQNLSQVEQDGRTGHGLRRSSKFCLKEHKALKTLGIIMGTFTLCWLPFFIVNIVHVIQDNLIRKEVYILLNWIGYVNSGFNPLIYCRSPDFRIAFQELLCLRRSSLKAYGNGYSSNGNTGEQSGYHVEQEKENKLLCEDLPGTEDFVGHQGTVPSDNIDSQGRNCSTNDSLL

Structure (SMILES)	activation [1, 4]	Ki [2, 5]	Biological example 2: intracellular cAMP levels, % increase over the basal level [3]	Ki [2]	activation [1]
CCCCNCC(O)c1cccc(Cl)c1 (stereo not drawn) [Example 2, 2-(Butylamino)-1-(3-chlorophenyl)ethan-1-ol]	27%	6.31 µM	3%		
CCCC(C)NCC(O)c1cc(Cl)c(N)c(C(F)(F)F)c1 (mixture of isomers) [Example 31, 1-(4-amino-3-chloro-5-(trifluoromethyl)phenyl)-2-(pentan-2-ylamino)ethan-1-ol]	36%		439%	0.0316 µM	
Oc1ccc(C(O)CNCC2CCCCC2)cc1 (stereo not drawn) [Example 6, 4-(2-((Cyclohexylmethyl)amino)-1-hydroxyethyl)phenol]	23%	10 µM	3%		
CCCCNCC(O)c1cccc(O)c1 (stereo not drawn) [Example 14, 3-(2-(Butylamino)-1-hydroxyethyl)phenol]	17%	15.8 µM	20%		
CCCC(C)NCC(O)c1ccc(O)cc1 (stereo not drawn) [Example 8, 4-(1-Hydroxy-2-(pentan-2-ylamino)ethyl)phenol acetate]		20 µM	15%		12%
CCCCNCC(O)c1cc(Cl)c(N)c(C(F)(F)F)c1 (stereo not drawn) [Example 30, 1-(4-Amino-3-chloro-5-(trifluoromethyl)phenyl)-2-(butylamino)ethan-1-ol]	50%		231%	0.0794 µM	

Reference: US20190119196A1, “COMPOUNDS FOR THE TREATMENT OF […]” (priority 2016, published 2019)
